According to US20190076406A1, “METHODS AND COMPOSITIONS FOR TREATING CONDITIONS ASSOCIATED WITH ANGIOGENESIS USING A VASCULAR ADHESION PROTEIN-1 (VAP-1) INHIBITOR” (MASSACHUSETTS EYE & EAR INFIRMARY, priority 2007, published 2019):

How the values were obtained:
[1] = test system: ICAM-1; experiment: ELISA of ICAM-1 in RPE-choroid complex after laser injury; format: in vivo, rat; conditions: 3 days after laser injury; 0.3 mg/kg daily i.p.; mean±SEM
Procedure: (§1) Brown-Norway rats were anesthetized with 0.2-0.3 ml of a 50:50 mixture of 100 mg/ml Ketamine and 20 mg/ml Xylazine. Pupils were dilated with 5.0% Phenylephrine and 0.8% Tropicamide. CNV was induced with a 532 nm laser (Oculight GLx, Iridex, Mountain View, Calif.). Six laser spots (150 mW, 100 μm, 100 msec) were placed in each eye using a slit-lamp delivery system and a cover glass as a contact lens. Production of a bubble at the time of laser confirmed the rupture of the Bruch's membrane.
(§2) To block VAP-1, a specific VAP-1 inhibitor, Compound II described above, was used (R-tech Ueno, Ltd., Tokyo, Japan). […]
(§3) The RPE-choroid complex was carefully isolated from eyes 3 days after photocoagulation and placed in 300 μl of lysis buffer supplemented with protease inhibitors and sonicated. The lysate was centrifuged at 15,000 rpm for 15 minutes at 4° C. and the levels of TNF-α, monocyte chemotactic protein (MCP)-1, and intercellular adhesion molecule (ICAM)-1 were determined with rat TNF-α (BD bioscience), MCP-1 (BD bioscience) and ICAM-1 (R&D Systems, Minneapolis, Minn.) enzyme-linked immunosorbent assay (ELISA) kits according to the manufacturers' protocols. Total protein concentration was determined using a Bio-Rad Protein Assay Kit (Bio-Rad Laboratories Hercules, Calif.) and dilutions of bovine serum albumin (Bio-Rad Laboratories) as standards.

[2] = test system: TNF-α; experiment: ELISA of TNF-α in RPE-choroid complex after laser injury; format: in vivo, rat; conditions: 3 days after laser injury; 0.3 mg/kg daily i.p.; mean±SEM
Procedure: as §1, §2, §3

[3] = biological target: T1, monoamine oxidase (MAO)-A (Homo sapiens, UniProt P21397); experiment: IC50 against MAO-A; format: biochemical
T1 sequence (P21397 1-527): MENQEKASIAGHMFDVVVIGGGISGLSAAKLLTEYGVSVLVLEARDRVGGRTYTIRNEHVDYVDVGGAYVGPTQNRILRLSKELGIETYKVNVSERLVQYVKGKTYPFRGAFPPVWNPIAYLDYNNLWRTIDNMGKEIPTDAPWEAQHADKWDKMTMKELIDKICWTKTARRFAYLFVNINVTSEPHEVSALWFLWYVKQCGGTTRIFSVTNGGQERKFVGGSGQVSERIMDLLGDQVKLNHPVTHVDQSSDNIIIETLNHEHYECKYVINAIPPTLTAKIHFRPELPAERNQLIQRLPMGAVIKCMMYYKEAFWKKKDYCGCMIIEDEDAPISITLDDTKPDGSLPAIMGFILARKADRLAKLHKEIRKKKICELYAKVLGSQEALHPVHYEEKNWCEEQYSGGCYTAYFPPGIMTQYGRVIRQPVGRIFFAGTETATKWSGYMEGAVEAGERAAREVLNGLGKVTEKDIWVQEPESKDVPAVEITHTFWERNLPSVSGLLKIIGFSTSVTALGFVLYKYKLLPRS

[4] = biological target: T2, human semicarbazide-sensitive amine oxidase (SSAO) (Homo sapiens, UniProt Q16853); experiment: IC50 against human SSAO; format: biochemical
T2 sequence (Q16853 1-763): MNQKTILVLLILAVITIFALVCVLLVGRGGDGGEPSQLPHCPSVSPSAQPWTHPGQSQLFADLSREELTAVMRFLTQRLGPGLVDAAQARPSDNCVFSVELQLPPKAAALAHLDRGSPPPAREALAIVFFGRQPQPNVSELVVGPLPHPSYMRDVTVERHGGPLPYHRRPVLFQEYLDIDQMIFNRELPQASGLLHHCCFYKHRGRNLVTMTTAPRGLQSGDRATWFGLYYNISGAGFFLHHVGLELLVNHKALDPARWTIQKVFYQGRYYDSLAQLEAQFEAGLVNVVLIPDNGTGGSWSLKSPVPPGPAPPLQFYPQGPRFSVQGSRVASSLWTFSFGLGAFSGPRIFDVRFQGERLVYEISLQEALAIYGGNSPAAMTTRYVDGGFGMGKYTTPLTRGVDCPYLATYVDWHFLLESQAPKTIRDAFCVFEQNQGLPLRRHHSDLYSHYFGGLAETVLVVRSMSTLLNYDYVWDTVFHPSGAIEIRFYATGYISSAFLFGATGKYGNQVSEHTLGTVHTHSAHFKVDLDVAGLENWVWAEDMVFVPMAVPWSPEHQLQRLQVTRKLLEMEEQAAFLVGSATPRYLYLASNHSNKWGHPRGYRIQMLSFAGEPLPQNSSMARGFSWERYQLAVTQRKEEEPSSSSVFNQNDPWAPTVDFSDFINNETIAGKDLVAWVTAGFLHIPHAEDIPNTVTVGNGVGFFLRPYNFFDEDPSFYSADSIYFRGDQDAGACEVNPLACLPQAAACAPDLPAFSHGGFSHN

[5] = test system: laser-induced CNV in Brown-Norway rats; experiment: Laser-induced CNV, fluorescein angiography leakage grading; format: in vivo, rat; conditions: day 7 after laser injury, 0.3 mg/kg daily i.p., n=12
Procedure: as §1
To block VAP-1, a specific VAP-1 inhibitor, Compound II described above, was used (R-tech Ueno, Ltd., Tokyo, Japan). After laser injury, the inhibitor (0.3 mg/kg BW) was administered to the animals by daily i.p. injections. As a control, some animals received the same regimen for the vehicle solution alone.
Seven days after laser injury, vascular leakage from the CNV lesions was assessed using fluorescein angiography (FA), as described previously (Zambarakji et al. (2001) IOVS 42: 1553-60). Briefly, FA was performed in anesthetized animals from VAP-1 inhibitor- or vehicle-treated groups, using a digital fundus camera (Model TRC 50 IA; Topcon, Paramus, N.J.). Fluorescein injections were performed intraperitoneally (0.2 ml of 2% fluorescein; Akorn, Decatur, Ill.).
The Grade-IIB lesions were defined as clinically significant, as described previously.

CC(=O)Nc1nc(CCc2ccc(NC(=N)NN)cc2)c(Cc2ccc(S(C)(=O)=O)cc2)s1 [Compound II]
ICAM-1 protein level in RPE-choroid complex [1]: 57 ± 2 ng/mg | TNF-α protein level in RPE-choroid complex [2]: 360 ± 12 pg/mg | IC50 [3]: > 10 µM | IC50 [4]: 7 nM | incidence of clinically significant CNV lesions graded as IIB [5]: 41.8%
